Among the data in BindingDB's records for doi:10.1021/jm900036m (The University of Newcastle, 2009) are IC50 values, retold here.

The test is described as follows: Inhibition of dynamin 1-mediated endocytosis internalization of Tf-A594 in human U2OS cells pretreated for 30 mins.
Turning to `CCCCCCCCNC(=O)/C(C#N)=C/c1c(C)n(CCN(C)C)c2ccccc12` [2-Cyano-N-octyl-3-[1-(2-dimethylaminoethyl)-2-methyl-1Hindol-3-yl]-acyrlamide], the IC50 was 13.2 µM.
`CCCCCCCCNC(=O)/C(C#N)=C/c1c(C)n(CCCN(C)C)c2ccccc12` [2-Cyano-N-octyl-3-[1-(3-dimethylaminopropyl)-2-methyl-1Hindol-3-yl]-acrylamide]: the IC50 was 10.8 µM.
For the molecule `CCCCCCNC(=O)/C(C#N)=C/c1c(C)n(CCCN(C)C)c2ccccc12` [2-Cyano-N-hexyl-3-[1-(3-dimethylaminopropyl)-2-methyl-1Hindol-3-yl]-acrylamide], the IC50 worked out at 14.3 µM.
To `CCCCCCCCNC(=O)/C(C#N)=C/c1cn(CCCN(C)C)c2ccccc12` [2-Cyano-N-octyl-3-(1-(3-dimethylaminopropyl)-1H-indol-3-yl)-acrylamide] belongs 5 µM.
Take `CCCCCCCCCCNC(=O)/C(C#N)=C/c1c(C)n(CCN(C)C)c2ccccc12` [2-Cyano-N-decyl-3-[1-(2-dimethylaminoethyl)-2-methyl-1Hindol-3-yl]-acrylamide]: the IC50 came out at 58.2 µM.
